Test results taken from patent publication US12533429B2, “Surface enhanced raman scattering nanoparticles and their use in detecting and imaging oxidative stress” (The Board of Trustees of the Leland Stanford Junior …, priority 2019, dated 2026).
“And” between values parts separate entries of the source, which are not always exact repeats. Equal entries are not always repeated.

What was measured:
[1] = system: A431 cells; assay: DCFH-DA fluorometric ROS assay in A431 cells; format: cell-based, human; conditions: DCFH-DA 40 μM, 24 h
Procedure: (§1) To measure ROS, a traditional fluorometric assay using Dichlorofluorescein diacetate (DCFH-DA; Sigma Aldrich, USA) was performed. DCFH-DA is a cell-permeable non-fluorescent probe which is hydrolyzed by intracellular esterases, thereby trapping it within the cell. This non-fluorescent molecule can then be oxidized by ROS, which turns it into fluorescent dichlorofluorescein (DCF). The level of intracellular fluorescence is therefore proportional to the amount of intracellular ROS production with a linear dynamic range [12]. All experiments were performed in 12-well plates. A431 and AsPC-1 cells were seeded in 12-well culture plates achieving a cell density of 50,000, 100,000, 200,000 and 300,000 cells/well. Cells were incubated with DCFH-DA (40 μM, 200 μL) in DMEM-10% FBS-50 U/mL penicillin-50 μg/mL streptomycin culture medium at 37° C. in a humidified incubator containing 5% CO2/95% air for 24 h. The fluorescence from DCF was then measured using a microplate spectrophotometer system with […].

[2] = system: AsPC-1 cells; assay: DCFH-DA fluorometric ROS assay in AsPC-1 cells; format: cell-based, human; conditions: DCFH-DA 40 μM, 24 h
Procedure: as §1

[3] = system: AD-MSCs; assay: DCFH-DA fluorometric ROS assay in AD-MSCs; format: cell-based; conditions: 300,000 AD-MSCs

## Dichlorofluorescein diacetate [DCFH-DA]
[1]; 50,000 A431 cells
  ROS production, DCFH-DA assay: 0.17±0.01 absorbance units
[1]; 100,000 A431 cells
  ROS production, DCFH-DA assay: 0.49±0.01 absorbance units
[1]; 200,000 A431 cells
  ROS production, DCFH-DA assay: 0.96±0.07 absorbance units
[1]; 300,000 A431 cells
  ROS production, DCFH-DA assay: 1.06±0.05 absorbance units and 1.10±0.04 absorbance units
[2]; 50,000 AsPC-1 cells
  ROS production, DCFH-DA assay: 0.15±0.04 absorbance units
[2]; 100,000 AsPC-1 cells
  ROS production, DCFH-DA assay: 0.51±0.06 absorbance units
[2]; 200,000 AsPC-1 cells
  ROS production, DCFH-DA assay: 0.82±0.05 absorbance units
[3]
  ROS production, DCFH-DA assay: 1.06±0.05 absorbance units
